Experimental findings from publication PMC5974765, “Targets Fishing and Identification of Calenduloside E as Hsp90AB1: Design, Synthesis, and Evaluation of Clickable Activity-Based Probe” (Frontiers in Pharmacology, 2018) are described below.

The target of test [1] is T1, Hsp90AB1 (Homo sapiens, UniProt P08238).
T1 construct: recombinant human Hsp90AB1 protein
The experiment in a line: SPR (Biacore, CM5 chip with immobilized protein); also competes with CE-P in HUVEC lysate pull-down. It counts as binding.

Test [2] concerns the target T1, Hsp90AB1. Nature of the test: SPR (Biacore, CM5 chip with immobilized protein); also click pull-down of recombinant protein and from HUVEC lysate. The test is classed as binding. In general terms: In SPR one partner is held on a chip, and binding of the other changes the refractive index at the surface.

T1 sequence (P08238 2-724): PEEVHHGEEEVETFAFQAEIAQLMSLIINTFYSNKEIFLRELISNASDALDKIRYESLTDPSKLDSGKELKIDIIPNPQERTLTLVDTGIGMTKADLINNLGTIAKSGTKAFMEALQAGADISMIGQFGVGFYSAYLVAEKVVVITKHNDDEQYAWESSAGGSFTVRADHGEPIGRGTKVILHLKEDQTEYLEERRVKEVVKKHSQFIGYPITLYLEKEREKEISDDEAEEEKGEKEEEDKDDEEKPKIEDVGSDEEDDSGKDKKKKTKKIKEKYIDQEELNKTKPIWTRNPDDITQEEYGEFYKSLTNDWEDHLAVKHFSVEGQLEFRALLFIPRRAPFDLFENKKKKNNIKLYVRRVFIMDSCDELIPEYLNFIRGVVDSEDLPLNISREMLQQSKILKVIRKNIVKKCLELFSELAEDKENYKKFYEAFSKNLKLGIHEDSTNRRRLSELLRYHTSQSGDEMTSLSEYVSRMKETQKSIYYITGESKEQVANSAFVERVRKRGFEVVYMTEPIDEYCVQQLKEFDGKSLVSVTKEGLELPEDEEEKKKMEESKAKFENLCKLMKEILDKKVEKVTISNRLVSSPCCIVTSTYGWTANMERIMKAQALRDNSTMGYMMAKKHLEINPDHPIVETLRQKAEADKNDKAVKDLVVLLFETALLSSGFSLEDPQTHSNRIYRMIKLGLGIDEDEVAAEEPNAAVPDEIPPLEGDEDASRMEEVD

Usually Kd stands for the free concentration of one partner at which half of the binding sites on the other are occupied at equilibrium, for simple one-to-one binding. `CC1(C)CC[C@]2(C(=O)O)CC[C@]3(C)C(=CC[C@@H]4[C@@]5(C)CC[C@H](O[C@@H]6O[C@H](C(=O)O)[C@@H](O)[C@H](O)[C@H]6O)C(C)(C)[C@@H]5CC[C@]43C)[C@@H]2C1` [CE, Calenduloside E] registered a Kd on Hsp90AB1 [1] of 2.34 µM.
Take `C#CCNC(=O)C12CCC(C)(C)C[C@H]1C1=CC[C@@H]3[C@@]4(C)CC[C@H](O[C@@H]5O[C@H](C(=O)O)[C@@H](O)[C@H](O)[C@H]5O)C(C)(C)[C@@H]4CC[C@@]3(C)[C@]1(C)CC2` (some centres unmarked) [VI, CE-P]: the Kd on Hsp90AB1 [2] is 23.4 µM.
